Experimental findings from patent publication US9828396B2, “Alkyne compounds for treatment of complement mediated disorders” (Achillion Pharmaceuticals, Inc., priority 2014, dated 2017) are described below.

The target in this test is Human factor D (Homo sapiens (Human), UniProt P00746). Kind of test: Human Factor D Assay. Format: biochemical. The settings on record: Human factor D 80 nM, substrate Z-L-Lys-SBzl, assay of Example 12. The essentials:
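Serum-purified human factor D (80 nM final) was preincubated 5 min at room temperature with compound in 50 mM Tris, 1 M NaCl, pH 7.5. Z-L-Lys-SBzl and DTNB (100 μM each) were added and OD405 followed kinetically over 30 min; IC50 from non-linear regression of percent inhibition.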

Sequence of Human factor D (P00746 26-253): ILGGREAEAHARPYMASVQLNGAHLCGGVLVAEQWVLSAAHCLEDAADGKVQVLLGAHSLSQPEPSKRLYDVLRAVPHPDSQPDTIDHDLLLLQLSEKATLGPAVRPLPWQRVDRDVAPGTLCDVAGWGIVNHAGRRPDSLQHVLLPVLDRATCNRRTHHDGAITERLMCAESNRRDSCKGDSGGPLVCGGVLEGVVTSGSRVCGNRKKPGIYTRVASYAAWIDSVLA

`NC(=O)c1nn(CC(=O)N2C[C@H](F)C[C@H]2C(=O)Nc2cncc(-c3c(F)cccc3Cl)n2)c2ccc(C#Cc3ncc(F)cn3)cc12` [Compound 86, 1-(2-((2S,4R)-2-(6-(2-chloro-6-fluorophenyl)pyrazin-2-ylcarbamoyl)-4-fluoropyrrolidin-1-yl)-2-oxoethyl)-5-((5-fluoropyrimidin-2-yl)ethynyl)-1H-indazole-3-carboxamide] displayed an IC50 of less than 1000 nM.

`COc1nc(C#Cc2ccc3c(c2)c(C(N)=O)nn3CC(=O)N2C[C@H](F)C[C@H]2C(=O)Nc2cccc(-c3ccccc3Cl)c2F)ncc1F` [Compound 78, 1-(2-((2S,4R)-2-(2′-chloro-2-fluorobiphenyl-3-ylcarbamoyl)-4-fluoropyrrolidin-1-yl)-2-oxoethyl)-5-((5-fluoro-4-methoxypyrimidin-2-yl)ethynyl)-1H-indazole-3-carboxamide] showed an IC50 of less than 1000 nM.

As to `CC(=O)c1cn(CC(=O)N2C[C@H](F)C[C@H]2C(=O)Nc2cccc(Br)n2)c2ccc(C#Cc3ncccn3)cc12` [Compound 42, (2S,4R)-1-(2-(3-acetyl-5-(pyrimidin-2-ylethynyl)-1H-indol-1-yl)acetyl)-N-(6-bromopyridin-2-yl)-4-fluoropyrrolidine-2-carboxamide], the IC50 is less than 1000 nM.

Compound `CC(=O)c1cn(CC(=O)N2C[C@H](F)C[C@H]2C(=O)NCc2cccc(Cl)c2F)c2ccc(C#Cc3cnccn3)cc12` [Compound 26, (2S,4R)-1-(2-(3-acetyl-5-(pyrazin-2-ylethynyl)-1H-indol-1-yl)acetyl)-N-(3-chloro-2-fluorobenzyl)-4-fluoropyrrolidine-2-carboxamide] returned an IC50 of less than 1000 nM.

`NC(=O)c1nn(CC(=O)N2[C@@H]3C[C@@H]3C[C@H]2C(=O)Nc2cccc(Br)n2)c2ccc(C#Cc3ccc(F)cn3)cc12` [Compound 58, 1-(2-((1R,3S,5R)-3-(6-bromopyridin-2-ylcarbamoyl)-2-azabicyclo[3.1.0]hexan-2-yl)-2-oxoethyl)-5-((5-fluoropyridin-2-yl)ethynyl)-1H-indazole-3-carboxamide] yielded a half-inhibitory concentration (IC50) of less than 1000 nM.

Take `NC(=O)c1nn(CC(=O)N2C[C@H](F)C[C@H]2C(=O)Nc2cc(C(F)(F)F)cc(Cl)n2)c2ccc(C#Cc3ncc(F)cn3)cc12` [Compound 74, 1-(2-((2S,4R)-2-(6-chloro-4-(trifluoromethyl)pyridin-2-ylcarbamoyl)-4-fluoropyrrolidin-1-yl)-2-oxoethyl)-5-((5-fluoropyrimidin-2-yl)ethynyl)-1H-indazole-3-carboxamide]: the IC50 was less than 1000 nM.
